From ChEMBL document CHEMBL3045502, “Microwave-assisted synthesis of some new tetrazolo[1,5-a]quinoline-based benzimidazoles catalyzed by p-TsOH and investigation of their antimicrobial activity” (2011)
≈ marks a conversion by molar mass, not a printed value.

Tests used:
Format in all cases: functional
Vibrio cholerae = assay: Antimicrobial activity against Vibrio cholerae MTCC 3906 after 24 to 48 hr by broth microdilution method
Salmonella typhimurium = assay: (§1) Antimicrobial activity against Salmonella enterica subsp. enterica serovar Typhi MTCC 98 after 24 to 48 hr by broth microdilution method
Bacillus subtilis = assay: Antimicrobial activity against Bacillus subtilis MTCC 441 after 24 to 48 hr by broth microdilution method
Clostridium tetani = assay: Antimicrobial activity against Clostridium tetani MTCC 449 after 24 to 48 hr by broth microdilution method
Streptococcus pneumoniae = assay: Antimicrobial activity against Streptococcus pneumoniae MTCC 1936 after 24 to 48 hr by broth microdilution method
Escherichia coli = assay: Antimicrobial activity against Escherichia coli MTCC 443 after 24 to 48 hr by broth microdilution method
Candida albicans = assay: Antimicrobial activity against Candida albicans MTCC 227 after 24 to 48 hr by broth microdilution method
Aspergillus fumigatus = assay: Antimicrobial activity against Aspergillus fumigatus MTCC 3008 after 24 to 48 hr by broth microdilution method
[1] = as §1

Row | Compound | MIC (Vibrio cholerae) | MIC (Salmonella typhimurium) | MIC (Bacillus subtilis) | MIC (Clostridium tetani) | MIC (Streptococcus pneumoniae) | MIC (Escherichia coli) | MIC (Candida albicans) | MIC (Aspergillus fumigatus) | MIC [1]
1 | Cc1ccc2c(c1)cc(-c1nc3cc(C)ccc3[nH]1)c1nnnn12 | 500 µg/mL (≈ 1590 µM) | 1000 µg/mL (≈ 3180 µM) | 500 µg/mL (≈ 1590 µM) | 500 µg/mL (≈ 1590 µM) | 500 µg/mL (≈ 1590 µM) | 250 µg/mL (≈ 795 µM) | 1000 µg/mL (≈ 3180 µM) | > 1000 µg/mL | –
2 | COc1ccc2c(c1)cc(-c1nc3cc(Cl)ccc3[nH]1)c1nnnn12 | 500 µg/mL (≈ 1430 µM) | 500 µg/mL (≈ 1430 µM) | 125 µg/mL (≈ 356 µM) | 500 µg/mL (≈ 1430 µM) | 500 µg/mL (≈ 1430 µM) | 500 µg/mL (≈ 1430 µM) | 250 µg/mL (≈ 713 µM) | 500 µg/mL (≈ 1430 µM) | –
3 | Brc1ccc2[nH]c(-c3cc4ccccc4n4nnnc34)nc2c1 | 250 µg/mL (≈ 685 µM) | 100 µg/mL (≈ 274 µM) | 500 µg/mL (≈ 1370 µM) | 250 µg/mL (≈ 685 µM) | 250 µg/mL (≈ 685 µM) | 100 µg/mL (≈ 274 µM) | 1000 µg/mL (≈ 2740 µM) | 1000 µg/mL (≈ 2740 µM) | –
4 | COc1ccc2c(c1)cc(-c1nc3ccccc3[nH]1)c1nnnn12 | 250 µg/mL (≈ 790 µM) | 250 µg/mL (≈ 790 µM) | 250 µg/mL (≈ 790 µM) | 500 µg/mL (≈ 1580 µM) | 250 µg/mL (≈ 790 µM) | 250 µg/mL (≈ 790 µM) | 500 µg/mL (≈ 1580 µM) | 1000 µg/mL (≈ 3160 µM) | –
5 | NYSTATIN | – | – | – | – | – | – | 100 µg/mL | 100 µg/mL | –
6 | GENTAMICIN | 5 µg/mL | – | 1 µg/mL | 5 µg/mL | 0.5 µg/mL | 0.05 µg/mL | – | – | 5 µg/mL
7 | Clc1ccc2c(c1)cc(-c1nc3ccccc3[nH]1)c1nnnn12 | 500 µg/mL (≈ 1560 µM) | 250 µg/mL (≈ 779 µM) | 250 µg/mL (≈ 779 µM) | 250 µg/mL (≈ 779 µM) | 500 µg/mL (≈ 1560 µM) | 1000 µg/mL (≈ 3120 µM) | 125 µg/mL (≈ 390 µM) | 500 µg/mL (≈ 1560 µM) | –
8 | O=C(N[C@H](CO)[C@H](O)c1ccc([N+](=O)[O-])cc1)C(Cl)Cl [CHLORAMPHENICOL] | 50 µg/mL (≈ 155 µM) | 50 µg/mL (≈ 155 µM) | 50 µg/mL (≈ 155 µM) | 50 µg/mL (≈ 155 µM) | 50 µg/mL (≈ 155 µM) | 50 µg/mL (≈ 155 µM) | – | – | –
9 | Cc1ccc2[nH]c(-c3cc4cc(Cl)ccc4n4nnnc34)nc2c1 | 250 µg/mL (≈ 747 µM) | 500 µg/mL (≈ 1490 µM) | 125 µg/mL (≈ 373 µM) | 500 µg/mL (≈ 1490 µM) | 250 µg/mL (≈ 747 µM) | 250 µg/mL (≈ 747 µM) | 1000 µg/mL (≈ 2990 µM) | > 1000 µg/mL | –
10 | Cc1ccc2[nH]c(-c3cc4ccccc4n4nnnc34)nc2c1 | 500 µg/mL (≈ 1660 µM) | 250 µg/mL (≈ 832 µM) | 250 µg/mL (≈ 832 µM) | 500 µg/mL (≈ 1660 µM) | 500 µg/mL (≈ 1660 µM) | 125 µg/mL (≈ 416 µM) | 500 µg/mL (≈ 1660 µM) | 1000 µg/mL (≈ 3330 µM) | –
11 | COc1ccc2c(c1)cc(-c1nc3cc(Br)ccc3[nH]1)c1nnnn12 | 500 µg/mL (≈ 1270 µM) | 500 µg/mL (≈ 1270 µM) | 500 µg/mL (≈ 1270 µM) | 250 µg/mL (≈ 633 µM) | 1000 µg/mL (≈ 2530 µM) | 500 µg/mL (≈ 1270 µM) | 1000 µg/mL (≈ 2530 µM) | 1000 µg/mL (≈ 2530 µM) | –
12 | Clc1ccc2c(c1)cc(-c1nc3cc(Cl)ccc3[nH]1)c1nnnn12 | 500 µg/mL (≈ 1410 µM) | 500 µg/mL (≈ 1410 µM) | 125 µg/mL (≈ 352 µM) | 250 µg/mL (≈ 704 µM) | 250 µg/mL (≈ 704 µM) | 125 µg/mL (≈ 352 µM) | 1000 µg/mL (≈ 2820 µM) | > 1000 µg/mL | –
13 | Cc1ccc2c(c1)cc(-c1nc3cc(Cl)ccc3[nH]1)c1nnnn12 | 500 µg/mL (≈ 1490 µM) | 500 µg/mL (≈ 1490 µM) | 500 µg/mL (≈ 1490 µM) | 500 µg/mL (≈ 1490 µM) | 500 µg/mL (≈ 1490 µM) | 250 µg/mL (≈ 747 µM) | 1000 µg/mL (≈ 2990 µM) | > 1000 µg/mL | –
14 | O=C(O)c1cn(C2CC2)c2cc(N3CCNCC3)c(F)cc2c1=O [CIPROFLOXACIN] | 25 µg/mL (≈ 75.4 µM) | 25 µg/mL (≈ 75.4 µM) | – | – | 50 µg/mL (≈ 151 µM) | 25 µg/mL (≈ 75.4 µM) | – | – | –
15 | c1ccc2c(c1)cc(-c1nc3ccccc3[nH]1)c1nnnn12 | 200 µg/mL (≈ 699 µM) | 500 µg/mL (≈ 1750 µM) | 200 µg/mL (≈ 699 µM) | 250 µg/mL (≈ 873 µM) | 500 µg/mL (≈ 1750 µM) | 500 µg/mL (≈ 1750 µM) | 1000 µg/mL (≈ 3490 µM) | > 1000 µg/mL | –
16 | COc1ccc2c(c1)cc(-c1nc3cc(C)ccc3[nH]1)c1nnnn12 | 500 µg/mL (≈ 1510 µM) | 500 µg/mL (≈ 1510 µM) | 500 µg/mL (≈ 1510 µM) | 250 µg/mL (≈ 757 µM) | 500 µg/mL (≈ 1510 µM) | 500 µg/mL (≈ 1510 µM) | 250 µg/mL (≈ 757 µM) | 500 µg/mL (≈ 1510 µM) | –
17 | Clc1ccc2c(c1)cc(-c1nc3cc(Br)ccc3[nH]1)c1nnnn12 | 500 µg/mL (≈ 1250 µM) | 250 µg/mL (≈ 626 µM) | 250 µg/mL (≈ 626 µM) | 500 µg/mL (≈ 1250 µM) | 500 µg/mL (≈ 1250 µM) | 250 µg/mL (≈ 626 µM) | 1000 µg/mL (≈ 2500 µM) | > 1000 µg/mL | –
18 | Clc1ccc2[nH]c(-c3cc4ccccc4n4nnnc34)nc2c1 | 500 µg/mL (≈ 1560 µM) | 100 µg/mL (≈ 312 µM) | 500 µg/mL (≈ 1560 µM) | 500 µg/mL (≈ 1560 µM) | 500 µg/mL (≈ 1560 µM) | 250 µg/mL (≈ 779 µM) | 500 µg/mL (≈ 1560 µM) | 1000 µg/mL (≈ 3120 µM) | –
19 | Cc1ccc2c(c1)cc(-c1nc3ccccc3[nH]1)c1nnnn12 | 250 µg/mL (≈ 832 µM) | 125 µg/mL (≈ 416 µM) | 100 µg/mL (≈ 333 µM) | 200 µg/mL (≈ 666 µM) | 200 µg/mL (≈ 666 µM) | 100 µg/mL (≈ 333 µM) | 1000 µg/mL (≈ 3330 µM) | 1000 µg/mL (≈ 3330 µM) | –
20 | COC1=CC(=O)C[C@@H](C)[C@]12Oc1c(Cl)c(OC)cc(OC)c1C2=O [GRISEOFULVIN] | – | – | – | – | – | – | 500 µg/mL (≈ 1420 µM) | 100 µg/mL (≈ 283 µM) | –
21 | CCn1cc(C(=O)O)c(=O)c2cc(F)c(N3CCNCC3)cc21 [NORFLOXACIN] | 10 µg/mL (≈ 31.3 µM) | 10 µg/mL (≈ 31.3 µM) | 100 µg/mL (≈ 313 µM) | 50 µg/mL (≈ 157 µM) | 10 µg/mL (≈ 31.3 µM) | 10 µg/mL (≈ 31.3 µM) | – | – | –
22 | Cc1ccc2c(c1)cc(-c1nc3cc(Br)ccc3[nH]1)c1nnnn12 | 250 µg/mL (≈ 659 µM) | 500 µg/mL (≈ 1320 µM) | 500 µg/mL (≈ 1320 µM) | 1000 µg/mL (≈ 2640 µM) | 250 µg/mL (≈ 659 µM) | 500 µg/mL (≈ 1320 µM) | 1000 µg/mL (≈ 2640 µM) | > 1000 µg/mL | –
23 | CC1(C)S[C@@H]2[C@H](NC(=O)[C@H](N)c3ccccc3)C(=O)N2[C@H]1C(=O)O [AMPICILLIN] | 100 µg/mL (≈ 286 µM) | 100 µg/mL (≈ 286 µM) | 250 µg/mL (≈ 715 µM) | 250 µg/mL (≈ 715 µM) | 100 µg/mL (≈ 286 µM) | 100 µg/mL (≈ 286 µM) | – | – | –
